The text below walks through data of patent US20170007553A1, “METHODS FOR THE PREVENTION AND TREATMENT OF CEREBRAL ISCHEMIA” (Edison Pharmaceuticals, Inc., priority 2009, published 2017).

Experiment [1] deals with cerebral ischemia induced in rats (MCAO). Nature of the experiment: Animal cerebral infarct assay, rat middle cerebral artery occlusion (MCAO) with reperfusion. The note with it: for reduction of total infarct size: gavage, 500 mg/kg. Format: in vivo.
The conditions of experiment [2]: fraction of the activity of natural alpha-tocopherol; cited from earlier work.
In experiment [3] the test system is neuronal cells. The note with it: nM/L concentrations; by suppressing early activation of c-Src kinase and 12-lipoxygenase; cited from earlier work.
[4] abbreviates: administered at the time of reperfusion, rats.

In the case of `CC(C)=CCC/C(C)=C/CC/C(C)=C/CC[C@@](C)(O)CCC1=C(C)C(=O)C(C)=C(C)C1=O` [alpha-tocotrienol quinone], in experiment [1] (setting [4]), the “reduction of cerebral edema relative to controls” value was 40%, the “reduction of total infarct volume relative to controls” value is 40% and the “reduction of total ischemic damage relative to controls” value turned out to be 40%. Further, in experiment [1] (administered at reperfusion), the “reduction of total infarct size” value came to 40%. Moreover, the “reduction of total infarct size” value in experiment [1] (administered at the time of MCAO) was 40%.
Take `Cc1cc(O)cc2c1O[C@](C)(CCC[C@H](C)CCC[C@H](C)CCCC(C)C)CC2` [Delta-tocopherol]: in experiment [2], the “activity relative to natural alpha-tocopherol” value is listed as “one hundredth”.
As to alpha-tocotrienol, in experiment [3], the “blocking of glutamate-induced death” value is listed as “blocked glutamate-induced death”.
Regarding `Cc1c(C)c2c(c(C)c1O)CC[C@@](C)(CCC[C@H](C)CCC[C@H](C)CCCC(C)C)O2` [alpha-tocopherol], the “blocking of glutamate-induced death” value in experiment [3] was “not”.
